In patent US5861413A, “2-oxo- and 2-thio-1,2-dihydroquinolinyl-oxazolidinones” (Bayer Aktiengesellschaft, priority 1996, dated 1999):
In brackets after ≈: the same amount, converted by molar mass. Like-named read-outs stand apart in the source and are kept apart here.

What was measured:
Type in all cases: cell-based
Staph. 133 = experiment: MIC by serial dilution on Iso-Sensitest agar, Staph. 133; details: 37° C., about 20 hours, about 10^4 colony-forming particles
Description: (§1) The minimum inhibitory concentrations (MIC) there determined by the serial dilution method on Iso-Sensitest agar (Oxoid). For each test substance, a number of agar plates were prepared which, at twice the dilution in each case, contained falling concentrations of the active compound. The agar plates were inoculated using a multipoint inoculator (Denley). For inoculation, overnight cultures of the pathogenic organisms were used which had previously been diluted such that each inoculation point contained about 10^4 colony-forming particles. The inoculated agar plates were incubated at 37° C., and the microbial growth was read off after about 20 hours. The MIC (μg/ml) indicates the lowest active compound concentration at which it was not possible to detect growth using the naked eye.

Staph. 48N = experiment: MIC by serial dilution on Iso-Sensitest agar, Staph. 48N; details: 37° C., about 20 hours, about 10^4 colony-forming particles
Description: as §1

Staph 25701 = experiment: MIC by serial dilution on Iso-Sensitest agar, Staph 25701; details: 37° C., about 20 hours, about 10^4 colony-forming particles
Description: as §1

Staph. 9TV = experiment: MIC by serial dilution on Iso-Sensitest agar, Staph. 9TV; details: 37° C., about 20 hours, about 10^4 colony-forming particles
Description: as §1

E. coli Neumann = experiment: MIC by serial dilution on Iso-Sensitest agar, E. coli Neumann; details: Escherichia coli, 37° C., about 20 hours, about 10^4 colony-forming particles
Description: as §1

Klebs. 57 USA = experiment: MIC by serial dilution on Iso-Sensitest agar, Klebs. 57 USA; details: 37° C., about 20 hours, about 10^4 colony-forming particles
Description: as §1

Psdm. Bonn = experiment: MIC by serial dilution on Iso-Sensitest agar, Psdm. Bonn; details: 37° C., about 20 hours, about 10^4 colony-forming particles
Description: as §1

[1] = system: Mycobacterium smegmatis DSM 43061; experiment: MIC by broth microdilution, Mycobacterium smegmatis DSM 43061; details: Mycolicibacterium smegmatis, DSM43061
Description: (§2) For rapidly growing mycobacteria, the MIC determination was carried out following the method of broth microdilution described by Swenson [cf. J. M. Swenson, C. Thornberry, U. A. Silcox, Rapidly growing mycobacteria. Testing of susceptibility to 34 antimicrobial agents by broth microdilution. Antimicrobial Agents and Chemotherapy Vol. 22, 186-192 (1982)]. A deviation from this was the brain-heart extract medium treated with 0.1% by volume of Tween 80.
(§3) The mycobacterial strains used wvere ordered from DSM (German Collection of Microorganisms, Brunswick). They were incubated at 37° C. in a humid chamber.
(§4) The MICs were read off after 2-4 days when the preparation-free controls were cloudy as a result of growth.

[2] = system: Mycobacterium smegmatis DSM 43465; experiment: MIC by broth microdilution, Mycobacterium smegmatis DSM 43465; details: Mycolicibacterium smegmatis, DSM43465
Description: as §2, §3, §4

[3] = DSM 43061, inoculum 2.20U+04 /ml, brain-heart extract medium with 0.1% Tween 80, 37° C., 2-4 days, read-out: MIC
[4] = DSM 43465, inoculum 3.10U+04 /ml, brain-heart extract medium with 0.1% Tween 80, 37° C., 2-4 days, read-out: MIC

SMILES	MIC (Staph. 133) [µg/mL]	MIC (Staph. 48N) [µg/mL]	MIC (Staph 25701) [µg/mL]	MIC (Staph. 9TV) [µg/mL]	MIC (E. coli Neumann) [µg/mL]	MIC (Klebs. 57 USA) [µg/mL]	MIC (Psdm. Bonn) [µg/mL]	MIC [1, 3] [µg/mL]	MIC [2, 4] [µg/mL]	MIC [1] [µg/mL]	MIC [2] [µg/mL]
CC(=O)NC[C@H]1CN(c2ccc3c(ccc(=O)n3C)c2)C(=O)O1 [Example 3]	2 (≈ 6.34 µM)	2 (≈ 6.34 µM)	2 (≈ 6.34 µM)	1 (≈ 3.17 µM)	> 64	> 64	> 64	2 (≈ 6.34 µM)	8 (≈ 25.4 µM)		
CCn1c(=O)ccc2cc(N3C[C@H](CNC(C)=O)OC3=O)ccc21 [Example 4]	4 (≈ 12.1 µM)	8 (≈ 24.3 µM)	4 (≈ 12.1 µM)	2 (≈ 6.07 µM)	> 64	> 64		4 (≈ 12.1 µM)	8 (≈ 24.3 µM)		
CC(=O)NC[C@H]1CN(c2ccc3c(ccc(=O)n3C(C)C)c2)C(=O)O1 [Example 5]	16 (≈ 46.6 µM)	16 (≈ 46.6 µM)	16 (≈ 46.6 µM)	8 (≈ 23.3 µM)	> 64	> 64	> 64				
CC(=O)NC[C@H]1CN(c2ccc3c(ccc(=O)n3CC#N)c2)C(=O)O1 [Example 6]								8 (≈ 23.5 µM)	4 (≈ 11.8 µM)		
[H]/N=C(/N)N[C@H]1[C@H](O)[C@@H](O)[C@H](O[C@@H]2O[C@@H](C)[C@](O)(C=O)[C@H]2O[C@@H]2O[C@@H](CO)[C@H](O)[C@@H](O)[C@@H]2NC)[C@@H](N/C(N)=N\[H])[C@@H]1O [Streptomycin, reference compound]										4 (≈ 6.88 µM)	4 (≈ 6.88 µM)

Second part, led by results:

MIC (Staph. 133) [µg/mL]	MIC (Staph. 48N) [µg/mL]	MIC (Staph 25701) [µg/mL]	MIC (Staph. 9TV) [µg/mL]	MIC (E. coli Neumann) [µg/mL]	MIC (Klebs. 57 USA) [µg/mL]	MIC (Psdm. Bonn) [µg/mL]	MIC [1, 3] [µg/mL]	MIC [2, 4] [µg/mL]	SMILES	MIC [1] [µg/mL]	MIC [2] [µg/mL]
8 (≈ 23.2 µM)	8 (≈ 23.2 µM)	8 (≈ 23.2 µM)	2 (≈ 5.79 µM)	> 32	> 32	> 32			CC(=O)NC[C@H]1CN(c2ccc3c(ccc(=O)n3CCO)c2)C(=O)O1 [Example 7]		
8 (≈ 21.1 µM)	8 (≈ 21.1 µM)	8 (≈ 21.1 µM)	4 (≈ 10.5 µM)	> 64	> 64	> 64			CC(=O)NC[C@H]1CN(c2ccc3c(ccc(=O)n3S(C)(=O)=O)c2)C(=O)O1 [Example 12]		
							4 (≈ 29.2 µM)	1 (≈ 7.29 µM)	NNC(=O)c1ccncc1 [Isoniazide, reference compound]		
